Tests used:
MSTO-211H cells = experiment: Cell proliferation inhibition experiment (CellTiter-Glo); format: cell-based; conditions: Homo sapiens, 96 hours, read-out: Inhibitory activity of each compound on the proliferation of MSTO-211H cells (grades of IC50 values)
Outline: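 MSTO-211H cells (1500/well, RPMI1640 + 10% FBS) were plated overnight at 37° C, 5% CO2, then exposed in duplicate to 9 three-fold compound dilutions (DMSO ≤0.5% final) for 96 hours. Viability was read as CellTiter-Glo luminescence after 10 min at room temperature. IC50 was derived from inhibition of the CTG signal.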

[1] = target: YAP-TEAD protein interaction (His-TEAD1 (209-426) protein, Bio-YAP peptide (60-100)) (Homo sapiens, UniProt P28347); experiment: YAP-TEAD protein interaction HTRF experiment; format: binding; conditions: His-TEAD1 (209-426) 10 nM, Bio-YAP peptide 50 nM, read-out: Activity of each compound in blocking YAP-TEAD protein interaction (grades of IC50 values)
Outline: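 His-TEAD1 (209-426) at 10 nM final was preincubated 20 min at RT with compounds (10-point 3-fold dilutions, duplicates, 1% DMSO), then Bio-YAP peptide, 10 min. Anti-His-Eu cryptate/streptavidin-XL665 added for 1 h at RT; HTRF read at ex 320 nm, Em665/Em620 ratio ×10000, IC50 from % inhibition.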

Sequence of YAP-TEAD protein interaction (His-TEAD1 (209-426) protein, Bio-YAP peptide (60-100)) (P28347 209-426): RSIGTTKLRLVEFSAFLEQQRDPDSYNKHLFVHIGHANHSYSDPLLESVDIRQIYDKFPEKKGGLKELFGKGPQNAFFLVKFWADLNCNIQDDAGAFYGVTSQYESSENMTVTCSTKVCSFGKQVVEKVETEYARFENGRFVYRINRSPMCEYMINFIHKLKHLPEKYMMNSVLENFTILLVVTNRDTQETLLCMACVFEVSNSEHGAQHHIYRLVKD

Structure (SMILES)	IC50 (MSTO-211H cells) [nM]	IC50 [1] [nM]
CCn1cc2c(n1)COc1c-2cc(C(N)=O)c(-c2c(Cl)c(F)cc3c2C[C@](c2ccccc2)([C@@H]2CCCN2)O3)c1F (atropisomer, axis not shown) [Compound 62, (S)-7-((S)-5-Chloro-6-fluoro-2-phenyl-2-((S)-pyrrolidin-2-yl)-2,3-dihydrobenzofuran-4-yl)-2-ethyl-6-fluoro-2,4-dihydrochromeno[3,4-c]pyrazole-8-carboxamide]	< 200	< 50
NC(=O)c1cc2cccnc2c(F)c1-c1c(Cl)c(F)cc2c1C[C@](c1ccccc1)([C@@H]1CCCN1)O2 (atropisomer, axis not shown) [Compound 4, (S)-7-((S)-5-Chloro-6-fluoro-2-phenyl-2-((S)-pyrrolidin-2-yl)-2,3-dihydrobenzofuran-4-yl)-8-fluoroquinoline-6-carboxamide]	< 200	< 50
[2H]C([2H])([2H])n1ncc2c(c1=O)Oc1cc(C(N)=O)c(-c3c(Cl)c(F)cc4c3C[C@](c3ccccc3)([C@@H]3CCCN3)O4)c(F)c1O2 (atropisomer, axis not shown) [Compound 132, (S)-8-((S)-5-Chloro-6-fluoro-2-phenyl-2-((S)-pyrrolidin-2-yl)-2,3-dihydrobenzofuran-4-yl)-9-fluoro-3-(methyl-d3)-4-oxo-3,4-dihydrobenzo[5,6][1,4]dioxo[2,3-d]pyridazine-7-carboxamide]	< 200	< 50
Cn1ccc2c(c1=O)Oc1cc(C(N)=O)c(-c3c(Cl)c(F)cc4c3C[C@](c3ccccc3)([C@@H]3CCCN3)O4)c(F)c1O2 (atropisomer, axis not shown) [Compound 136, (S)-7-((S)-5-Chloro-6-fluoro-2-phenyl-2-((S)-pyrrolidin-2-yl)-2,3-dihydrobenzofuran-4-yl)-6-fluoro-2-methyl-1-oxo-1,2-dihydrobenzo[5,6][1,4]dioxo[2,3-c]pyridine-8-carboxamide]	< 200	< 50
NC(=O)c1cc2c(c(F)c1-c1c(Cl)c(F)cc3c1C[C@](c1ccccc1)([C@@H]1CCCN1)O3)OCc1n[nH]cc1-2 (atropisomer, axis not shown) [Compound 46, (S)-7-((S)-5-Chloro-6-fluoro-2-phenyl-2-((S)-pyrrolidin-2-yl)-2,3-dihydrobenzofuran-4-yl)-6-fluoro-2,4-dihydrochromeno[3,4-c]pyrazole-8-carboxamide]	< 200	< 50
CNC(=O)c1cc2c(c(F)c1-c1c(Cl)c(F)cc3c1CC(c1ccccc1)(C1CCCN1)O3)Oc1c(cnn(C)c1=O)O2 [Compound 124, (S)-8-((S)-5-Chloro-6-fluoro-2-phenyl-2-((S)-pyrrolidin-2-yl)-2,3-dihydrobenzofuran-4-yl)-9-fluoro-N,2-dimethyl-1-oxo-1,2-dihydrobenzo[5,6][1,4]dioxo[2,3-d]pyridazine-7-carboxamide]	< 200	< 50
CNC(=O)c1cc2c(c(F)c1-c1c(Cl)c(F)cc3c1C[C@](c1ccccc1)([C@@H]1CCCN1)O3)Oc1c(cnn(CC(F)F)c1=O)O2 (atropisomer, axis not shown) [Compound 141, (S)-8-((S)-5-Chloro-6-fluoro-2-phenyl-2-((S)-pyrrolidin-2-yl)-2,3-dihydrobenzofuran-4-yl)-2-(2,2-difluoroethyl)-9-fluoro-N-methyl-1-oxo-1,2-dihydrobenzo[5,6][1,4]dioxo[2,3-d]pyridazine-7-carboxamide]	< 200	< 50
CNC(=O)c1cc2c(c(F)c1-c1c(Cl)c(F)cc3c1C[C@](c1ccccc1)([C@@H]1CCCN1)O3)OCc1nn(C)cc1-2 (atropisomer, axis not shown) [Compound 39, (S)-7-((S)-5-Chloro-6-fluoro-2-phenyl-2-((S)-pyrrolidin-2-yl)-2,3-dihydrobenzofuran-4-yl)-6-fluoro-N,2-dimethyl-2,4-dihydrochromeno[3,4-c]pyrazole-8-carboxamide]	< 200	< 50
CNC[C@@]1(c2ccccc2)Cc2c(cc(F)c(Cl)c2-c2c(C(N)=O)cn3cc(C)nc3c2F)O1 (atropisomer, axis not shown) [Compound I-16, (S)-7-((S)-5-Chloro-6-fluoro-2-((methylamino)methyl)-2-phenyl-2,3-dihydrobenzofuran-4-yl)-8-fluoro-2-methylimidazo[1,2-a]pyridine-6-carboxamide]	< 200	< 50
CNC(=O)c1cc2c(c(F)c1-c1c(Cl)c(F)cc3c1C[C@](c1ccccc1)([C@@H]1CCCN1)O3)Oc1cnn(C)c(=O)c1O2 (atropisomer, axis not shown) [Compound 125, (S)-8-((S)-5-Chloro-6-fluoro-2-phenyl-2-((S)-pyrrolidin-2-yl)-2,3-dihydrobenzofuran-4-yl)-9-fluoro-N,3-dimethyl-4-oxo-3,4-dihydroxybenzo[5,6][1,4]dioxo[2,3-d]pyridazine-7-carboxamide]	< 200	< 50
NC(=O)c1cc2c(c(F)c1-c1c(Cl)c(F)cc3c1C[C@](c1ccccc1)([C@@H]1CCCN1)O3)Oc1nccnc1O2 (atropisomer, axis not shown) [Compound 10, (S)-8-((S)-5-Chloro-6-fluoro-2-phenyl-2-((S)-pyrrolidin-2-yl)-2,3-dihydrobenzofuran-4-yl)-9-fluorobenzo[5,6][1,4]dioxino[2,3-b]pyrazine-7-carboxamide]	< 200	< 50
Cn1ncc2c(c1=O)Oc1c(cc(C(N)=O)c(-c3c(Cl)c(F)cc4c3C[C@](c3ccccc3)([C@@H]3CCCN3)O4)c1F)O2 (atropisomer, axis not shown) [Compound 105, (S)-8-((S)-5-Chloro-6-fluoro-2-phenyl-2-((S)-pyrrolidin-2-yl)-2,3-dihydrobenzofuran-4-yl)-9-fluoro-2-methyl-1-oxo-1,2-dihydrobenzo[5,6][1,4]dioxo[2,3-d]pyridazine-7-carboxamide]	< 200	< 50
NC(=O)c1cc2c(c(F)c1-c1c(Cl)c(F)cc3c1C[C@](c1ccccc1)([C@@H]1CCCN1)O3)Oc1cc(=O)n(C3CC3)nc1O2 (atropisomer, axis not shown) [Compound 129, (S)-8-((S)-5-Chloro-6-fluoro-2-phenyl-2-((S)-pyrrolidin-2-yl)-2,3-dihydrobenzofuran-4-yl)-2-cyclopropyl-9-fluoro-3-oxo-2,3-hydrobenzo[5,6][1,4]dioxo [2,3-c]pyridazine-7-carboxamide]	200 to 500	< 50
[2H]C1([2H])CC[C@]([2H])([C@@]2(c3ccccc3)Cc3c(cc(F)c(Cl)c3-c3c(C(N)=O)cc4c(c3F)Oc3c(cnn(CCC(F)(F)F)c3=O)O4)O2)N1 (atropisomer, axis not shown) [Compound 155, (S)-8-((S)-5-Chloro-6-fluoro-2-phenyl-2-((S)-pyrrolidin-2-yl-2,5,5-d3)-2,3-dihydrobenzofuran-4-yl)-9-fluoro-1-oxo-2-(3,3,3-trifluoropropyl)-1,2-dihydroxybenzo[5,6][1,4] dioxo[2,3-d]pyridazine-7-carboxamide]	< 200	< 50
NC(=O)c1cc2c(c(F)c1-c1c(Cl)c(F)cc3c1C[C@](c1ccccc1)([C@@H]1CCCN1)O3)Oc1c(N)ncnc1O2 (atropisomer, axis not shown) [Compound 114, (S)-4-Amino-7-((S)-5-chloro-6-fluoro-2-phenyl-2-((S)-pyrrolidin-2-yl)-2,3-dihydrobenzofuran-4-yl)-6-fluorobenzo[5,6][1,4]dioxo [2,3-d]pyrimidine-8-carboxamide]	500 to 5000	< 50
